Like-named read-outs stand apart in the source and are kept apart here. Where a SMILES comes first, the peptide text is derived from it. Bridges are numbered along the chain shown (N, C = ends). [ ]: non-standard residue; d: D form. Phe(4-B(OH)2) = N[C@@H](Cc1ccc(B(O)O)cc1)C(=O)O; R8 = C=CCCCCCC[C@@](C)(N)C(=O)O; S5 = C=CCCC[C@](C)(N)C(=O)O
Assays:
[1] = biological target: MDM2 (Homo sapiens, UniProt Q00987); test: Competitive fluorescence polarization assay for MDM2; type: binding; details: competitive FP assay, MDM2
[2] = biological target: T1, MDMX (Homo sapiens, UniProt O15151); test: Competitive fluorescence polarization assay for MDMX; type: binding; details: competitive FP assay
T1 sequence (O15151 1-125): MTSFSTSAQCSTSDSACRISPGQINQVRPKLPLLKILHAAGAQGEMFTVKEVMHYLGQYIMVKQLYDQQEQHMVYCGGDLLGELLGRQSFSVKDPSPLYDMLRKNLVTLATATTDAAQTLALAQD

MDM2, sequence (Q00987 1-125): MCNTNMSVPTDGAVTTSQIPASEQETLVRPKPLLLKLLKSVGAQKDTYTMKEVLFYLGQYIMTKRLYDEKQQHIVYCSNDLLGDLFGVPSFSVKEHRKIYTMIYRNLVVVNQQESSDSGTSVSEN

Row | Structure (SMILES) | IC50 ([1]; read-out: IC50 (MDM2)) | Ki ([1]; read-out: Ki (MDM2)) | IC50 ([2]; read-out: IC50 (MDMX)) | Ki ([2]; read-out: Ki (MDMX)) | IC50 ([1]; IC50 (MDM2)) | Ki ([1]; Ki (MDM2)) | IC50 ([2]; IC50 (MDMX)) | Ki ([2]; Ki (MDMX))
1 | CCCC[C@H](NC(=O)[C@H](C)NC(=O)[C@H](C)NC(=O)C(C)(C)NC(=O)[C@H](CC(C)C)NC(=O)[C@H](CCC(N)=O)NC(=O)[C@H](C)NC(=O)[C@H](Cc1c[nH]c2ccccc12)NC(=O)[C@H](Cc1ccc(O)cc1)NC(=O)[C@H](C)NC(=O)C(C)(C)NC(=O)[C@H](Cc1ccccc1)NC(=O)[C@@H](NC(=O)[C@H](CC(C)C)NC(C)=O)[C@@H](C)O)C(=O)N[C@@H](C)C(N)=O [compound 412] | < 10 nM | < 10 nM | 10 to 100 nM | < 10 nM | – | – | – | –
2 | CC(=O)N[C@@H](CC(C)C)C(=O)N[C@H](C(=O)N[C@@H](Cc1ccccc1)C(=O)N[C@]1(C)CCCCCCCCCCC[C@@](C)(C(=O)N[C@@H](CO)C(=O)N[C@@H](C)C(=O)N[C@@H](C)C(N)=O)NC(=O)[C@H](CC2CCC2)NC(=O)[C@H](CCC(N)=O)NC(=O)[C@H](C)NC(=O)[C@H](Cc2c[nH]c3ccccc23)NC(=O)[C@H](Cc2ccc(O)cc2)NC(=O)[C@H](CCC(=O)O)NC1=O)[C@@H](C)O [compound 434] | 10 to 100 nM | < 10 nM | 10 to 100 nM | 10 to 100 nM | – | – | – | –
3 | CC(=O)N[C@@H](CC(C)C)C(=O)N[C@H](C(=O)N[C@@H](Cc1ccccc1)C(=O)N[C@]1(C)CCCCCCCCCCC[C@@](C)(C(=O)N[C@@H](C)C(=O)N[C@@H](C)C(=O)N[C@@H](C)C(=O)N[C@@H](C)C(=O)N[C@@H](C)C(=O)N[C@H](C)C(N)=O)NC(=O)[C@H](CC(C)C)NC(=O)[C@H](CCC(N)=O)NC(=O)[C@H](C)NC(=O)[C@H](Cc2c[nH]c3ccccc23)NC(=O)[C@H](Cc2ccc(O)cc2)NC(=O)[C@H](CCC(=O)O)NC1=O)[C@@H](C)O [compound 445] | – | – | – | – | 10 to 100 nM | < 10 nM | 100 to 1000 nM | 10 to 100 nM
4 | CC(=O)N[C@@H](CC(C)C)C(=O)N[C@H](C(=O)N[C@@H](Cc1ccccc1)C(=O)N[C@]1(C)CCCCCCC=CCCC[C@@](C)(C(=O)N[C@@H](C)C(=O)N[C@@H](C)C(=O)N[C@@H](C)C(=O)N[C@@H](C)C(=O)N[C@@H](C)C(=O)N[C@H](C)C(N)=O)NC(=O)[C@H](CC(C)C)NC(=O)[C@H](CCC(N)=O)NC(=O)[C@H](C)NC(=O)[C@H](Cc2c[nH]c3ccccc23)NC(=O)[C@H](Cc2ccc(B(O)O)cc2)NC(=O)[C@H](CCC(=O)O)NC1=O)[C@@H](C)O [compound 556] (Ac-LTF[R8]E[Phe(4-B(OH)2)]WAQL[S5]AAAAA[dA]-NH2; staple 4-11) | – | – | – | – | – | < 10 nM | – | 10 to 100 nM
5 | CC(=O)N[C@@H](C)C(=O)N[C@@H](C)C(=O)N[C@@H](C)C(=O)N[C@@H](CC(C)C)C(=O)N[C@H](C(=O)N[C@@H](Cc1ccccc1)C(=O)N[C@]1(C)CCCCCC/C=C/CCC[C@@](C)(C(=O)N[C@@H](C)C(=O)N[C@@H](C)C(=O)N[C@@H](C)C(=O)N[C@@H](C)C(=O)N[C@@H](C)C(=O)N[C@H](C)C(N)=O)NC(=O)[C@H](CC(C)C)NC(=O)[C@H](CCC(N)=O)NC(=O)[C@H](C)NC(=O)[C@H](Cc2c[nH]c3ccccc23)NC(=O)[C@H](Cc2ccc(O)cc2)NC(=O)[C@H](CCC(=O)O)NC1=O)[C@@H](C)O [compound 557] (Ac-AAALTF[R8]EYWAQL[S5]AAAAA[dA]-NH2; staple (E) 7-14) | – | – | – | – | – | 10 to 100 nM | – | 10 to 100 nM
6 | CC(=O)N[C@@H](CCCNC(=N)N)C(=O)N[C@H](C(=O)N[C@@H](Cc1ccccc1)C(=O)N[C@]1(C)CCCCCCC=CCCC[C@@](C)(C(=O)N[C@@H](C)C(=O)N[C@@H](C)C(=O)N[C@@H](C)C(=O)N[C@@H](C)C(=O)N[C@@H](C)C(=O)N[C@H](C)C(N)=O)NC(=O)[C@H](CC(C)C)NC(=O)[C@H](CCC(N)=O)NC(=O)[C@H](C)NC(=O)[C@H](Cc2c[nH]c3ccccc23)NC(=O)[C@H](Cc2ccc(O)cc2)NC(=O)[C@H](CCC(=O)O)NC1=O)[C@@H](C)O [compound 559] (Ac-RTF[R8]EYWAQL[S5]AAAAA[dA]-NH2; staple 4-11) | – | – | – | – | – | 10 to 100 nM | – | 10 to 100 nM

— patent publication US8927500B2, “Peptidomimetic macrocycles” (Aileron Therapeutics, Inc., priority 2012, dated 2015)
